Data as given in the OligoGym collection.
HELM strings list units from the 5' end as sugar, base in round brackets, then linkage (d deoxyribose, r ribose, m 2'-O-methyl, p phosphodiester). Strings are as the collection lists them; they lack the last nucleoside at the 3' end of the tested compound. [moe] = 2'-O-(2-methoxyethyl) (MOE); [sp] = phosphorothioate linkage; [m5C] = 5-methylcytosine

Biological target: ATXN2
Experiment: mouse, dose not given
Details: ASO

| Substance | 3 h FOB score |
| --- | --- |
| RNA1{[moe](T)[sp].[moe](T)p.[moe]([m5C])p.[moe](T)p.[moe](G)p.d(T)[sp].d(A)[sp].d([m5C])[sp].d(T)[sp].d(T)[sp].d(T)[sp].d(T)[sp].d([m5C])[sp].d(T)[sp].d([m5C])[sp].[moe](A)p.[moe](T)p.[moe](G)[sp].[moe](T)}$$$$ (last 3' nucleoside missing) | 4.5 score 0-7 |
| RNA1{[moe](T)[sp].[moe](T)p.[moe]([m5C])p.[moe](T)p.[moe](G)p.d([m5C])[sp].d(T)[sp].d(A)[sp].d(A)[sp].d([m5C])[sp].d(T)[sp].d(G)[sp].d(G)[sp].d(T)[sp].d(T)[sp].[moe](T)p.[moe](G)p.[moe]([m5C])[sp].[moe]([m5C])}$$$$ (last 3' nucleoside missing) | 2 score 0-7 |
| RNA1{[moe](T)[sp].[moe](T)p.[moe]([m5C])p.[moe](T)p.[moe]([m5C])[sp].d(T)[sp].d(A)[sp].d(T)[sp].d(T)[sp].d(T)[sp].d([m5C])[sp].d(T)[sp].d(T)[sp].[moe](T)p.[moe](G)p.[moe](T)[sp].[moe]([m5C])}$$$$ (last 3' nucleoside missing) | 1 score 0-7 |
| RNA1{[moe](T)[sp].[moe](T)p.[moe]([m5C])p.[moe](T)p.[moe]([m5C])[sp].d(T)[sp].d(A)[sp].d(T)[sp].d(T)[sp].d(T)[sp].d([m5C])[sp].d(T)[sp].d(T)[sp].d(T)[sp].d(G)[sp].[moe](T)p.[moe]([m5C])p.[moe]([m5C])[sp].[moe](A)}$$$$ (last 3' nucleoside missing) | 4 score 0-7 |
| RNA1{[moe](T)[sp].[moe](T)p.[moe]([m5C])p.[moe](T)p.[moe]([m5C])p.[moe](T)p.d(A)[sp].d(T)[sp].d(T)[sp].d(T)[sp].d([m5C])[sp].d(T)[sp].d(T)[sp].d(T)[sp].d(G)[sp].d(T)[sp].[moe]([m5C])p.[moe]([m5C])[sp].[moe](A)}$$$$ (last 3' nucleoside missing) | 4 score 0-7 |
| RNA1{[moe](T)[sp].[moe](T)p.[moe]([m5C])p.[moe](T)p.[moe]([m5C])p.d(T)[sp].d(A)[sp].d(T)[sp].d(T)[sp].d(T)[sp].d([m5C])[sp].d(T)[sp].d(T)[sp].d(T)[sp].d(G)[sp].[moe](T)p.[moe]([m5C])p.[moe]([m5C])[sp].[moe](A)}$$$$ (last 3' nucleoside missing) | 3 score 0-7 |
| RNA1{[moe](T)[sp].[moe](T)p.[moe]([m5C])p.[moe](T)p.d([m5C])[sp].d(T)[sp].d(A)[sp].d(T)[sp].d(T)[sp].d(T)[sp].d([m5C])[sp].d(T)[sp].d(T)[sp].d(T)[sp].[moe](G)p.[moe](T)p.[moe]([m5C])p.[moe]([m5C])[sp].[moe](A)}$$$$ (last 3' nucleoside missing) | 4 score 0-7 |
| RNA1{[moe](T)[sp].[moe]([m5C])p.[moe](A)p.[moe](G)p.[moe](A)p.d([m5C])[sp].d(T)[sp].d(T)[sp].d([m5C])[sp].d(T)[sp].d(T)[sp].d(G)[sp].d(T)[sp].d(T)[sp].d(G)[sp].[moe](T)p.[moe](T)p.[moe](G)[sp].[moe](T)}$$$$ (last 3' nucleoside missing) | 2 score 0-7 |
| RNA1{[moe](T)[sp].[moe]([m5C])p.[moe](A)p.[moe](T)p.[moe](G)p.d(G)[sp].d([m5C])[sp].d(T)[sp].d([m5C])[sp].d([m5C])[sp].d(A)[sp].d(A)[sp].d(T)[sp].d(A)[sp].d(T)[sp].[moe]([m5C])p.[moe](G)p.[moe](G)[sp].[moe]([m5C])}$$$$ (last 3' nucleoside missing) | 2.25 score 0-7 |
| RNA1{[moe](T)[sp].[moe]([m5C])p.[moe](A)p.[moe](T)p.[moe](T)p.d(T)[sp].d(T)[sp].d(A)[sp].d(T)[sp].d(T)[sp].d([m5C])[sp].d(T)[sp].d(G)[sp].d([m5C])[sp].d(T)[sp].[moe](T)p.[moe](T)p.[moe](G)[sp].[moe]([m5C])}$$$$ (last 3' nucleoside missing) | 2 score 0-7 |
| RNA1{[moe](T)[sp].[moe]([m5C])p.[moe](A)p.[moe](T)p.[moe]([m5C])[sp].d(A)[sp].d(T)[sp].d(T)[sp].d(T)[sp].d(T)[sp].d([m5C])[sp].d([m5C])[sp].d(A)[sp].[moe](G)p.[moe](G)p.[moe](G)[sp].[moe]([m5C])}$$$$ (last 3' nucleoside missing) | 1 score 0-7 |
| RNA1{[moe](T)[sp].[moe]([m5C])p.[moe](G)p.[moe](T)p.[moe](A)p.d(T)[sp].d(G)[sp].d(T)[sp].d(T)[sp].d(T)[sp].d(G)[sp].d(T)[sp].d([m5C])[sp].d(T)[sp].d(G)[sp].[moe](T)p.[moe]([m5C])p.[moe](T)[sp].[moe](T)}$$$$ (last 3' nucleoside missing) | 6.25 score 0-7 |
| RNA1{[moe](T)[sp].[moe]([m5C])p.[moe](T)p.[moe](A)p.[moe](T)[sp].d(T)[sp].d(T)[sp].d([m5C])[sp].d(T)[sp].d(T)[sp].d(T)[sp].d(G)[sp].d(T)[sp].[moe]([m5C])p.[moe]([m5C])p.[moe](A)[sp].[moe](G)}$$$$ (last 3' nucleoside missing) | 5 score 0-7 |
| RNA1{[moe](T)[sp].[moe]([m5C])p.[moe](T)p.[moe](A)p.[moe](T)p.d(T)[sp].d(T)[sp].d([m5C])[sp].d(T)[sp].d(T)[sp].d(T)[sp].d(G)[sp].d(T)[sp].d([m5C])[sp].d([m5C])[sp].[moe](A)p.[moe](G)p.[moe](G)[sp].[moe](A)}$$$$ (last 3' nucleoside missing) | 6.5 score 0-7 |
| RNA1{[moe](T)[sp].[moe]([m5C])p.[moe](T)p.[moe](G)[sp].[moe](T)[sp].d(A)[sp].d([m5C])[sp].d(T)[sp].d(T)[sp].d(T)[sp].d(T)[sp].d([m5C])[sp].d(T)[sp].d([m5C])[sp].d(A)[sp].[moe](T)p.[moe](G)p.[moe](T)[sp].[moe](G)}$$$$ (last 3' nucleoside missing) | 1 score 0-7 |
| RNA1{[moe](T)[sp].[moe]([m5C])p.[moe](T)p.[moe](G)p.[moe](T)[sp].d(A)[sp].d([m5C])[sp].d(T)[sp].d(T)[sp].d(T)[sp].d(T)[sp].d([m5C])[sp].d(T)[sp].[moe]([m5C])p.[moe](A)p.[moe](T)[sp].[moe](G)}$$$$ (last 3' nucleoside missing) | 0.5 score 0-7 |
| RNA1{[moe](T)[sp].[moe]([m5C])p.[moe](T)p.[moe](G)p.[moe](T)[sp].d(A)[sp].d([m5C])[sp].d(T)[sp].d(T)[sp].d(T)[sp].d(T)[sp].d([m5C])[sp].d(T)[sp].d([m5C])[sp].d(A)[sp].[moe](T)p.[moe](G)p.[moe](T)[sp].[moe](G)}$$$$ (last 3' nucleoside missing) | 0 score 0-7 |
| RNA1{[moe](T)[sp].[moe]([m5C])p.[moe](T)p.[moe](G)p.[moe](T)p.[moe](A)p.d([m5C])[sp].d(T)[sp].d(T)[sp].d(T)[sp].d(T)[sp].d([m5C])[sp].d(T)[sp].d([m5C])[sp].d(A)[sp].d(T)[sp].[moe](G)p.[moe](T)[sp].[moe](G)}$$$$ (last 3' nucleoside missing) | 1 score 0-7 |
| RNA1{[moe](T)[sp].[moe]([m5C])p.[moe](T)p.[moe](G)p.[moe](T)p.d(A)[sp].d([m5C])[sp].d(T)[sp].d(T)[sp].d(T)[sp].d(T)[sp].d([m5C])[sp].d(T)[sp].d([m5C])[sp].d(A)[sp].[moe](T)p.[moe](G)p.[moe](T)[sp].[moe](G)}$$$$ (last 3' nucleoside missing) | 0 score 0-7 |
| RNA1{[moe](T)[sp].[moe]([m5C])p.[moe](T)p.[moe](G)p.[moe]([m5C])[sp].d(T)[sp].d(A)[sp].d(A)[sp].d([m5C])[sp].d(T)[sp].d(G)[sp].d(G)[sp].d(T)[sp].[moe](T)p.[moe](T)p.[moe](G)[sp].[moe]([m5C])}$$$$ (last 3' nucleoside missing) | 2 score 0-7 |
| RNA1{[moe](T)[sp].[moe]([m5C])p.[moe](T)p.[moe](G)p.[moe]([m5C])p.d(T)[sp].d(A)[sp].d(A)[sp].d([m5C])[sp].d(T)[sp].d(G)[sp].d(G)[sp].d(T)[sp].d(T)[sp].d(T)[sp].[moe](G)p.[moe]([m5C])p.[moe]([m5C])[sp].[moe]([m5C])}$$$$ (last 3' nucleoside missing) | 3 score 0-7 |
| RNA1{[moe](T)[sp].[moe]([m5C])p.[moe](T)p.[moe](G)p.d(T)[sp].d(A)[sp].d([m5C])[sp].d(T)[sp].d(T)[sp].d(T)[sp].d(T)[sp].d([m5C])[sp].d(T)[sp].d([m5C])[sp].[moe](A)p.[moe](T)p.[moe](G)p.[moe](T)[sp].[moe](G)}$$$$ (last 3' nucleoside missing) | 0 score 0-7 |
| RNA1{[moe](T)[sp].[moe]([m5C])p.[moe](T)p.[moe](T)p.[moe](G)p.d(T)[sp].d(T)[sp].d(G)[sp].d(T)[sp].d(T)[sp].d(G)[sp].d(T)[sp].d(T)[sp].d(T)[sp].d(A)[sp].[moe]([m5C])p.[moe](A)p.[moe](T)[sp].[moe](T)}$$$$ (last 3' nucleoside missing) | 3 score 0-7 |
| RNA1{[moe](T)[sp].[moe]([m5C])p.[moe](T)p.[moe]([m5C])p.[moe](T)[sp].d(A)[sp].d(T)[sp].d(T)[sp].d(T)[sp].d([m5C])[sp].d(T)[sp].d(T)[sp].d(T)[sp].[moe](G)p.[moe](T)p.[moe]([m5C])[sp].[moe]([m5C])}$$$$ (last 3' nucleoside missing) | 1 score 0-7 |
| RNA1{[moe](T)[sp].[moe]([m5C])p.[moe](T)p.[moe]([m5C])p.[moe](T)p.d(A)[sp].d(T)[sp].d(T)[sp].d(T)[sp].d([m5C])[sp].d(T)[sp].d(T)[sp].d(T)[sp].d(G)[sp].d(T)[sp].[moe]([m5C])p.[moe]([m5C])p.[moe](A)[sp].[moe](G)}$$$$ (last 3' nucleoside missing) | 6.75 score 0-7 |
| RNA1{[moe](T)[sp].[moe]([m5C])p.[moe](T)p.[moe]([m5C])p.[moe]([m5C])[sp].d(A)[sp].d(T)[sp].d(T)[sp].d(A)[sp].d(T)[sp].d(T)[sp].d(T)[sp].d([m5C])[sp].[moe](T)p.[moe](T)p.[moe]([m5C])[sp].[moe](A)}$$$$ (last 3' nucleoside missing) | 1 score 0-7 |
